molecular target: recombinant human angiotensin-II receptor subtype 2 (hAT2R) (Homo sapiens (Human), UniProt P50052); test: Competitive radioligand binding assay (SPA), hAT2R HEK293 membranes; settings: [125I]-Tyr4-Angiotensin-II, read-out: AT2R Ki
Experimental: Compound Solubilization Test and reference compounds were received as dry powder reagents, weighed, and solubilized in 100% DMSO to generate a working stock concentration of 10 mM. Membrane Preparation Protocol (hAT2R HEK293 and rAT2R HEK293) hAT2R membranes were prepared from human embryonic kidney (HEK293) cells which were stably transfected with recombinant human angiotensin-II receptor subtype 2 (hAT2R). Cells from the stable cell lines were expanded in tissue culture flasks to generate a large population of cells; cell pellet (>1 gm), and these cell pellets were stored frozen prior to initiating this membrane isolation procedure for each receptor isoform. Frozen cell pellets were thawed in ice-cold homogenization/resuspension buffer (50 mM Tris-HCl, pH 7.5) containing one Complete© protease inhibitor tablet with EDTA (Roche Diagnostics) per 50 mL buffer, and cell pellet was resuspended at a ratio of 10 mL homogenization buffer to gram of starting cell pellet. Cell suspension was homogenized with an overhead motor-driven Teflon-glass homogenizer using 15 to 20 strokes, followed by centrifugation at 1100×g for 10 minutes at 4° C. The supernatant was saved on ice, pellets were homogenized as before, and centrifuged at 1100×g for 10 minutes at 4° C. Both supernatants were combined and subsequently centrifuged at 35,000×g for 60 minutes at 4° C. The final centrifugation pellet (pellet 2) containing the isolated membranes was resuspended in buffer (4 to 5 mL/g of starting cell paste) containing protease inhibitors and quick frozen in liquid nitrogen prior to storage at -80° C. Protein concentration was determined using a BCA kit (ThermoScientific, Inc.) with bovine serum albumin (BSA) as standard. […] The assays were performed with a scintillation proximity assay (SPA) method using polyvinyltoluene (PVT) wheat germ agglutinin-coupled SPA beads (Perkin Elmer Cat. #RPNQ0001). Assay buffer containing BSA (50 mM Tris-HCl, pH 7.5, 150 mM NaCl, 0.1% w/v fatty-acid free BSA) was used for preparing radioligand, membrane and SPA bead reagent dilution to working stock concentrations. Reference control and test compounds were diluted to obtain ten-point concentration response curves using a four-fold serial dilution protocol onto assay plates, dispensed acoustically from DMSO stock using automated ECHO instrument technology (Labcyte, Inc.). Concentration response curves were routinely generated with the highest final assay concentration for the reference angiotensin-II control at 50 nM, and the highest final assay concentration for the test compounds at 50 μM. […] The hAT2R membrane was combined with PVT-WGA SPA beads to obtain a final assay concentration of 0.25 μg/well hAT2R membrane+0.1 mg/well PVT-WGA SPA bead. And the hAT1R membrane PVT-WGA SPA bead final concentrations was 0.5 μg/well hAT1R membrane+0.1 mg/well PVT-WGA SPA bead. […] For all assays, radioligand addition was followed by the addition of membrane-SPA bead mixture, i.e., the hAT2R membrane-SPA bead mixture (30 μL), the rAT2R membrane-SPA bead mixture, or the AT1R membrane-SPA bead mixture (30 μL) into the assay plate. All dispensing steps were added using a Multiflo FX (Biotek, Inc.) bulk dispensing instrument. After reagent addition steps, assay plates were sealed, and plate contents mixed for one minute on a benchtop micro-plate shaker. Following a 10-hour incubation at room temperature to allow for bead settling and radioligand binding, bound radioactivity was quantitated using a Microbeta Trilux scintillation counter (Perkin Elmer) and expressed as counts per minute (CPM). The unlabeled angiotensin-II control was included on each plate as an experimental assay reference. […] Data Analysis Procedures Compounds were tested in a 10-point concentration response curve (CRC) format, with each plate containing the positive control angiotensin-II positive reference compound, and experimental compounds.

Sequence of recombinant human angiotensin-II receptor subtype 2 (hAT2R) (P50052 whole entry): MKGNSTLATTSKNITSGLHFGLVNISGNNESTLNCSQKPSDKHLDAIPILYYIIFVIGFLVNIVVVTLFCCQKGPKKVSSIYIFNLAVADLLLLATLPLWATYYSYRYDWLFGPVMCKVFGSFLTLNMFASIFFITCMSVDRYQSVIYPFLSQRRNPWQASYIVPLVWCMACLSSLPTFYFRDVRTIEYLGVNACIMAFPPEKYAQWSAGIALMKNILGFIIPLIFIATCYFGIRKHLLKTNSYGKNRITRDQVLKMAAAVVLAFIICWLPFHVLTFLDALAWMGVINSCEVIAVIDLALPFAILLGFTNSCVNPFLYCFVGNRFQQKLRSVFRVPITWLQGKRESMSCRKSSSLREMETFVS

`CN(C(=O)N1CCC(CC(=O)N(c2ccccc2)C2CCCCC2(F)F)(C(=O)O)CC1)c1ccc(F)cc1` (racemic) [Example 10, 4-[2-(N-(2,2-difluorocyclohexyl)anilino)-2-oxo-ethyl]-1-[(4-fluorophenyl)-methyl-carbamoyl]piperidine-4-carboxylic acid] and `CN(C(=O)N1CCC(CC(=O)N(c2ccc(F)cc2)C2CCCC(F)(F)C2)(C(=O)O)CC1)c1ccccc1` (racemic) [Example 54, 4-[2-(N-(3,3-difluorocyclohexyl)-4-fluoro-anilino)-2-oxo-ethyl]-1-[methyl(phenyl)carbamoyl]piperidine-4-carboxylic acid] are within 1.5-fold of each other in Ki: 1.56 nM for the first, 2 nM for the second.

First: CCC(C1CC1)N(C(=O)CC1(C(=O)O)CCN(C(=O)N(C)c2ccc(F)cc2)CC1)c1ccccc1 (racemic) [Example 17, 4-[2-[N-(1-cyclopropylpropyl)anilino]-2-oxo-ethyl]-1-[(4-fluorophenyl)-methyl-carbamoyl]piperidine-4-carboxylic acid]
Second: CC(C1CC1)N(C(=O)CC1(C(=O)O)CCN(C(=O)N(C)c2ccc(F)cc2)CC1)c1ccccc1 (racemic) [Example 43, 4-[2-[N-(1-cyclopropylethyl)anilino]-2-oxo-ethyl]-1-[(4-fluorophenyl)-methyl-carbamoyl]piperidine-4-carboxylic acid]
The Ki of the first is 2-fold higher: 5.82 nM for the first, 2.93 nM for the second.

`CC(C)C(C)N(C(=O)CC1(C(=O)O)CCN(C(=O)N(C)c2ccc(F)cc2)CC1)c1ccccc1` (racemic) [Example 34, 4-[2-(N-[(1)-1,2-dimethylpropyl]anilino)-2-oxo-ethyl]-1-[(4-fluorophenyl)-methyl-carbamoyl]piperidine-4-carboxylic acid] and `CC(CC(F)F)N(C(=O)CC1(C(=O)O)CCN(C(=O)N(C)c2ccc(F)cc2)CC1)c1ccccc1` (racemic) [Example 36, 4-[2-(N-(3,3-difluoro-1-methyl-propyl)anilino)-2-oxo-ethyl]-1-[(4-fluorophenyl)-methyl-carbamoyl]piperidine-4-carboxylic acid] are within 1.5-fold of each other in Ki: 4.32 nM for the first, 4.43 nM for the second.

First: CN(C(=O)N1CCC(CC(=O)N(c2ccccc2)C2CCCOC2)(C(=O)O)CC1)c1ccc(F)cc1 (racemic) [Example 41, 1-[(4-fluorophenyl)-methyl-carbamoyl]-4-[2-oxo-2-(N-tetrahydropyran-3-ylanilino)ethyl]piperidine-4-carboxylic acid]
Second: CN(C(=O)N1CCC(CC(=O)N(c2ccccc2)C2CCCOC2)(C(=O)O)CC1)c1ccc(C2CC2)cc1 (racemic) [Example 45, 1-[(4-cyclopropylphenyl)-methyl-carbamoyl]-4-[2-oxo-2-(N-tetrahydropyran-3-ylanilino)ethyl]piperidine-4-carboxylic acid]
The Ki of the first is 5.3-fold higher: 16.6 nM for the first, 3.12 nM for the second. The second binds more tightly here.

Compared with `CN(C(=O)N1CCC(CC(=O)N(c2ccccc2F)C2CCCC(F)(F)C2)(C(=O)O)CC1)c1ccccc1` (racemic) [Example 52, 4-[2-(N-(3,3-difluorocyclohexyl)-2-fluoro-anilino)-2-oxo-ethyl]-1-[methyl(phenyl)carbamoyl]piperidine-4-carboxylic acid], `CC(C(=O)N1CCC(CC(=O)N(c2ccccc2)C2CCCC(F)(F)C2)(C(=O)O)CC1)c1ccccc1F` (racemic) [Example 64, 4-[2-(N-(3,3-difluorocyclohexyl)anilino)-2-oxo-ethyl]-1-[2-(2-fluorophenyl)propanoyl]piperidine-4-carboxylic acid] is 1.8-fold higher in Ki: 0.58 nM for the first, 1.04 nM for the second. The first binds more tightly here.

`CC(C(=O)N1CCC(CC(=O)N(c2ccccc2)C2CCCC(F)(F)C2)(C(=O)O)CC1)c1ccc(F)cc1` (racemic) [Example 62, 4-[2-(N-(3,3-difluorocyclohexyl)anilino)-2-oxo-ethyl]-1-[2-(4-fluorophenyl)propanoyl]piperidine-4-carboxylic acid] and `CC(C(=O)N1CCC(CC(=O)N(c2ccccc2)C2CCCC(F)(F)C2)(C(=O)O)CC1)c1cccc(F)c1` (racemic) [Example 63, 4-[2-(N-(3,3-difluorocyclohexyl)anilino)-2-oxo-ethyl]-1-[2-(3-fluorophenyl)propanoyl]piperidine-4-carboxylic acid] are within 1.5-fold of each other in Ki: 1.04 nM for the first, 1.19 nM for the second.

Going from `O=C(Cc1ccccc1F)N1CCC(CC(=O)N(c2ccccc2)C2CCCC(F)(F)C2)(C(=O)O)CC1` (racemic) [Example 65, 4-[2-(N-(3,3-difluorocyclohexyl)anilino)-2-oxo-ethyl]-1-[2-(2-fluorophenyl)acetyl]piperidine-4-carboxylic acid] to `O=C(N1CCC(CC(=O)N(c2ccccc2)C2CCCC(F)(F)C2)(C(=O)O)CC1)N1CCc2ccccc21` (single isomer, unassigned) [Example 35A, 4-[2-(N-(3,3-difluorocyclohexyl)anilino)-2-oxo-ethyl]-1-(indoline-1-carbonyl)piperidine-4-carboxylic acid], the Ki rises from 2.55 nM to 10.8 nM (4.2-fold).

Going from `CC(C)c1ccc(C(=O)N2CCC(CC(=O)N(c3ccccc3)C3CCCC(F)(F)C3)(C(=O)O)CC2)c(F)c1` (racemic) [Example 68, 4-[2-(N-(3,3-difluorocyclohexyl)anilino)-2-oxo-ethyl]-1-(2-fluoro-4-isopropyl-benzoyl)piperidine-4-carboxylic acid] to `CC(C)c1ccc(C(=O)N2CCC(CC(=O)N(c3ccccc3)C3CCCC(F)(F)C3)(C(=O)O)CC2)cc1` (racemic) [Example 69, 4-[2-(N-(3,3-difluorocyclohexyl)anilino)-2-oxo-ethyl]-1-(4-isopropylbenzoyl)piperidine-4-carboxylic acid], the Ki rises from 2.93 nM to 9.24 nM (3.2-fold). The first binds more tightly here.

First: O=C(c1ccc(C2CC2)cc1)N1CCC(CC(=O)N(c2ccccc2)C2CCCC(F)(F)C2)(C(=O)O)CC1 (racemic) [Example 70, 1-(4-cyclopropylbenzoyl)-4-[2-(N-(3,3-difluorocyclohexyl)anilino)-2-oxo-ethyl]piperidine-4-carboxylic acid]
Second: O=C(N1CCC(CC(=O)N(c2ccccc2)C2CCCC(F)(F)C2)(C(=O)O)CC1)N1CCc2c(F)cccc21 (racemic) [Example 71, 4-[2-(N-(3,3-difluorocyclohexyl)anilino)-2-oxo-ethyl]-1-(4-fluoroindoline-1-carbonyl)piperidine-4-carboxylic acid]
The Ki of the first is 3-fold higher: 9.39 nM for the first, 3.14 nM for the second.

First: O=C(N1CCC(CC(=O)N(c2ccccc2)C2CCCC(F)(F)C2)(C(=O)O)CC1)N1CCc2ccc(F)cc21 (racemic) [Example 72, 4-[2-(N-(3,3-difluorocyclohexyl)anilino)-2-oxo-ethyl]-1-(6-fluoroindoline-1-carbonyl)piperidine-4-carboxylic acid]
Second: O=C(N1CCC(CC(=O)N(c2ccccc2)C2CCCC(F)(F)C2)(C(=O)O)CC1)N1CCc2cccc(F)c21 (racemic) [Example 73, 4-[2-(N-(3,3-difluorocyclohexyl)anilino)-2-oxo-ethyl]-1-(7-fluoroindoline-1-carbonyl)piperidine-4-carboxylic acid]
The Ki of the first is 2.8-fold lower: 1.09 nM for the first, 3.03 nM for the second. The first binds more tightly here.

Compared with `CN(C(=O)N1CCC(CC(=O)N(c2ccccc2)C2CCCOC2)(C(=O)O)CC1)c1ccc(F)cc1` (single isomer, unassigned) [Example 41A, 1-[(4-fluorophenyl)-methyl-carbamoyl]-4-[2-oxo-2-(N-tetrahydropyran-3-ylanilino)ethyl]piperidine-4-carboxylic acid], `CC(C1CC1)N(C(=O)CC1(C(=O)O)CCN(C(=O)N(C)c2ccc(F)cc2)CC1)c1ccccc1` (single isomer, unassigned) [Example 43A, 4-[2-[N-(1-cyclopropylethyl)anilino]-2-oxo-ethyl]-1-[(4-fluorophenyl)-methyl-carbamoyl]piperidine-4-carboxylic acid] is 4.1-fold lower in Ki: 8.89 nM for the first, 2.19 nM for the second.

In the case of `CN(C(=O)N1CCC(CC(=O)N(c2ccccc2)C2CCCOC2)(C(=O)O)CC1)c1ccc(F)cc1` (single isomer, unassigned) [Example 41B, 1-[(4-fluorophenyl)-methyl-carbamoyl]-4-[2-oxo-2-(N-tetrahydropyran-3-ylanilino)ethyl]piperidine-4-carboxylic acid], the Ki is reported as 14.7 nM.

Source: US12122750B2, “AT2R antagonists and uses thereof” (Eli Lilly and Company, priority 2022, dated 2024)
